# Source: patent US7276339B2 (H. Lundbeck A/S, priority 1998, dated 2007)
# Read-outs that look alike come from different tables or passages of the source. Non-standard residues stand in square brackets, D forms with d. Residues, ends and D or L forms follow the SMILES beside them. No end group written: not given here. *: point of attachment. NMeF = CN[C@@H](Cc1ccccc1)C(=O)O; X1 = O=C(Cc1ccc(O)cc1)*
# Tests used:
# [1] = target: rat NPFF1 receptor (Rattus norvegicus, UniProt Q9EP86); test: [125I]D-Tyr-NPFF radioligand binding, membranes of COS-7 cells transiently expressing cloned rat NPFF1; parameters: expressed in transfected cells; host or cells: COS-7 (transient)
# Procedure: Transfected cells from culture flasks are scraped into 5 ml of 20 mM Tris-HCl, 5 mM EDTA, pH 7.5, and lysed by sonication. The cell lysates are centrifuged at 1000 rpm for 5 min. at 4° C., and the supernatant is centrifuged at 30,000×g for 20 min. at 4° C. […] Optimal membrane suspension dilutions, defined as the protein concentration required to bind less than 10% of the added radioligand, […], unlabeled compounds, and binding buffer to a final volume of 250 μl. In equilibrium saturation binding assays membrane preparations are incubated in the presence of increasing concentrations of [^3H]-labeled compound. […] Competition assay: 50 pM radioligand, 10-12 points. Binding reaction mixtures are incubated for 2 hr at 25° C., and the reaction stopped by filtration through a double layer of GF filters treated with 0.1% polyethyleneimine, using a cell harvester. Wash buffer: 50 mM Tris-HCl, 0.1% BSA. Radioactivity may be measured by scintillation counting and data are analyzed by a computerized non-linear regression program. Non-specific binding is defined as the amount of radioactivity remaining after incubation of membrane protein in the presence of 1 μM final concentration […]. Protein concentration may be measured by the Bradford method using Bio-Rad Reagent, with bovine serum albumin as a standard.
# Cos-7 cells transiently expressing the gene encoding the novel rat NPFF1 receptor were used for pharmacological evaluation.
# [2] = target: rat spinal cord membrane receptor; test: [125I]D-Tyr-NPFF radioligand binding, rat spinal cord membranes; settings: competition of [125I]D-Tyr-NPFF binding; * = differs from NPFF1
# From the text: The binding profile of rat NPFF1 was compared to that of rat spinal cord membranes. […] (See * Table 2).
# [3] = competition of [125I]D-Tyr-NPFF binding, COS-7 membranes, read-out: pKi for cloned rat NPFF1 receptor binding in COS-7 cells, MEAN (converted)
# [4] = competition of [125I]D-Tyr-NPFF binding, COS-7 membranes
# Chain of rat NPFF1 receptor (Q9EP86 whole entry): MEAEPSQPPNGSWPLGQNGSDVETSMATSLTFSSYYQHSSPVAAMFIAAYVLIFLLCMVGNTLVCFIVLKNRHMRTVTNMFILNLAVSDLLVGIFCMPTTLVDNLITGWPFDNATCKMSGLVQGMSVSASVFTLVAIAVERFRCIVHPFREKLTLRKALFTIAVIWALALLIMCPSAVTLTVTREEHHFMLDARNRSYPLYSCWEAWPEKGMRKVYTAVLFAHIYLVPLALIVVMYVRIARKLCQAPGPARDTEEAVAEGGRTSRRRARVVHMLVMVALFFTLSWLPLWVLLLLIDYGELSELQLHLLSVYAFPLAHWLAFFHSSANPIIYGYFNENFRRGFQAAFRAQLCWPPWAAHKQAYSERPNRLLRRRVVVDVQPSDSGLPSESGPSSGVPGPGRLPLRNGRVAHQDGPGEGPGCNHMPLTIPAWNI
compound,measurement,setting,value
Cc1nc2sccn2c(=O)c1CCN1CCC(=C(c2ccc(F)cc2)c2ccc(F)cc2)CC1 [ritanserine],Ki,[1]; [3],≥ 10 µM
H-PDVDHVFLRF-NH2 [SchistFLRF],"pKi for rat spinal cord membrane receptor binding, MEAN",[2],6.39
N=C(N)NCCC[C@H](N)C(=O)O [L-arginine],Ki,[1]; [3],≥ 10 µM
CC(C)C[C@@H](NC(=O)[C@H](N)Cc1ccc(O)cc1)C(=O)N(C)[C@@H](Cc1ccccc1)C(=O)N[C@@H](CCC(N)=O)C(=O)N1CCC[C@H]1C(=O)N[C@@H](CCC(N)=O)C(=O)N[C@@H](CCCNC(=N)N)C(=O)N[C@@H](Cc1ccccc1)C(N)=O [(2DME)Y8Fa] (H-[dY][dL][NMeF]QPQRF-NH2; N-terminus assumed),"pKi for rat spinal cord membrane receptor binding, MEAN",[2],9.57
same,"pKi for cloned rat NPFF1 receptor binding in COS-7 cells, MEAN",[1]; [4],9.2
NCCc1ccc(O)c(O)c1 [dopamine],Ki,[1]; [3],≥ 10 µM
N=C(N)NCCC[C@@H](N)C(=O)O [D-arginine],Ki,[1]; [3],≥ 10 µM
Dynorphin A1-13,"pKi for rat spinal cord membrane receptor binding, MEAN",[2],*5.700
CCNC(C)Cc1cccc(C(F)(F)F)c1 (centres unmarked) [fenfluramine],Ki,[1]; [3],≥ 10 µM
"H-KHQYLRF-NH2 [AF-2, H-Lys-His-Gln-Tyr-Leu-Arg-Phe-NH2]","pKi for rat spinal cord membrane receptor binding, MEAN",[2],*7.965
same,Ki,[1]; [3],0.0948 µM
COc1ccc2c(c1)[nH]c1c(C)nccc12 [harmine],Ki,[1],≥ 10 µM
CC(C)C[C@@H](NC(=O)[C@H](N)Cc1ccc(O)cc1)C(=O)N[C@@H](Cc1ccccc1)C(=O)N[C@@H](CCC(N)=O)C(=O)N1CCC[C@H]1C(=O)N[C@@H](CCC(N)=O)C(=O)N[C@@H](CCCNC(=N)N)C(=O)N[C@@H](Cc1ccccc1)C(N)=O [(2D)Y8Fa] (H-[dY][dL]FQPQRF-NH2; N-terminus assumed),"pKi for rat spinal cord membrane receptor binding, MEAN",[2],*9.212
same,"pKi for cloned rat NPFF1 receptor binding in COS-7 cells, MEAN",[1]; [4],8.33
C[C@@H]1CN([C@H]2CC[C@](C#N)(c3ccc(F)cc3)CC2)CC[C@]1(C(=O)O)c1ccccc1 [levocabastine],Ki,[1]; [3],≥ 10 µM
CC(C)C[C@H](NC(=O)[C@H](Cc1ccccc1)NC(=O)Cc1ccc(O)cc1)C(=O)N[C@@H](Cc1ccccc1)C(=O)N[C@@H](CCC(N)=O)C(=O)N1CCC[C@H]1C(=O)N[C@@H](CCC(N)=O)C(=O)N[C@@H](CCCNC(=N)N)C(N)=O [desamino-nor-Y8Ra] (X1-FLFQPQR-NH2),"pKi for rat spinal cord membrane receptor binding, MEAN",[2],7.51
same,"pKi for cloned rat NPFF1 receptor binding in COS-7 cells, MEAN",[1]; [4],7.27
CNCCCN1c2ccccc2CCc2ccccc21 [desipramine],Ki,[1]; [3],≥ 10 µM
CSCC[C@H](NC(=O)[C@@H]1CCCN1)C(=O)N[C@@H](CCCNC(=N)N)C(=O)N[C@@H](Cc1ccccc1)C(N)=O [PMRFa] (H-PMRF-NH2; N-terminus assumed),"pKi for rat spinal cord membrane receptor binding, MEAN",[2],9.37
CC(C)C[C@H](NC(=O)[C@H](CCCCN)NC(=O)[C@H](CCCN=C(N)N)NC(=O)[C@H](C)NC(=O)[C@H](CO)NC(=O)[C@H](CCCCN)NC(=O)[C@H](CCCN=C(N)N)NC(=O)[C@H](C)NC(=O)CNC(=O)[C@@H](NC(=O)[C@H](Cc1ccccc1)NC(=O)CNC(=O)CNC(=O)[C@@H](N)Cc1ccccc1)[C@@H](C)O)C(=O)N[C@@H](C)C(=O)N[C@@H](CC(N)=O)C(=O)N[C@@H](CCC(N)=O)C(=O)O [nociceptin],Ki,[1],≥ 10 µM
TEPGLEEVGEIEQKQLQ [nocistatin],"pKi for cloned rat NPFF1 receptor binding in COS-7 cells, MEAN",[1]; [4],≤ 5
CC(C)C[C@@H](NC(=O)[C@H](N)Cc1ccc(O)cc1)C(=O)N[C@H](Cc1ccccc1)C(=O)N[C@@H](CCC(N)=O)C(=O)N1CCC[C@H]1C(=O)N[C@@H](CCC(N)=O)C(=O)N[C@@H](CCCNC(=N)N)C(=O)N[C@@H](Cc1ccccc1)C(N)=O [(3D)Y8Fa] (H-[dY][dL][dF]QPQRF-NH2; N-terminus assumed),"pKi for rat spinal cord membrane receptor binding, MEAN",[2],9.123
CSCC[C@H](NC(=O)[C@H](Cc1ccc(OS(=O)(=O)O)cc1)NC(=O)[C@@H](N)CC(=O)O)C(=O)NCC(=O)N[C@@H](Cc1c[nH]c2ccccc12)C(=O)N[C@@H](CCSC)C(=O)N[C@@H](CC(=O)O)C(=O)N[C@@H](Cc1ccccc1)C(N)=O [CCK8],"pKi for cloned rat NPFF1 receptor binding in COS-7 cells, MEAN",[1]; [4],≤ 5
